# Measured values reported in patent publication EP4417607A1, “HETEROCYCLIC COMPOUND AS SOS1 INHIBITOR AND USES THEREOF” (Nanjing Zaiming Pharmaceutical Co., Ltd., priority 2021, dated 2023).
# pIC50: −log10 of the molar value.
# How the values were obtained:
# [1] = tested on: p-ERK pathway in H358 cells; assay: p-ERK pathway inhibition in H358 cells (Advanced phospho-ERK (Thr202/Tyr204) cellular kit, HTRF); type: cell-based; conditions: Homo sapiens, NCI-H358, 1 h compound incubation
# Procedure, shortened: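 Serum-starved H358 cells (50000/well, overnight) treated with compound for 1 h at 37 °C, then lysed; phospho-ERK (Thr202/Tyr204) read by HTRF (665/620 nm ratio). Cell-free wells set 100% inhibition, untreated cells 0%; IC50 fitted from 8 concentrations by four-parameter curve.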
# CYP2D6 = target: T1, CYP2D6 (Homo sapiens, UniProt P10635); assay: CYP2D6 enzymatic activity inhibition in human liver microsomes; type: in vitro ADME; conditions: IC50, human liver microsome, substrate dextromethorphan
# T1 construct: Human liver microsome (Corning 452117); tissue Corning 452117; host or cells: human liver microsomes
# Description: The inhibition of CYP2C9, CYP2D6, and CYP3A4 enzymatic activity by the compound of the present invention was determined using the following method. • I. Experimental materials and instruments • 1. Human liver microsome (Corning 452117) • 2. Na2HPO4 (Sigma SLBZ6180) • 3. KH2PO4 (Sigma SLBT6559) • 4. NADPH (Solarbio 705Y021) • […] • 6. Positive substrates diclofenac (Sigma SLBV3438), dextromethorphan (TRC 3-EDO-175-1), and midazolam (Cerilliant FE01161704) • 7. Positive inhibitors sulfaphenazole (D. Ehrenstorfer GmbH 109012), quinidine (TCI WEODL-RE), and ketoconazole (Sigma 100M1091V) • 7. AB Sciex Triple Quad 5500 liquid chromatography-mass spectrometry system • II. Procedures • 1. Preparation of 100 mM phosphate-buffered saline (PBS): 7.098 g Na2HPO4 was weighed. 500 mL pure water was added. The mixture was dissolved by sonication to give solution A. 3.400 g KH2PO4 was weighed. 250 mL pure water was added. The mixture was dissolved by sonication to give solution B. The solution A was placed in a stirrer, and the solution B was slowly added until the pH reached 7.4 to prepare the 100 mM PBS buffer. • 2. A 10 mM NADPH solution was prepared with a 100 mM PBS buffer. A 10 mM stock solution of the compound of the present invention was diluted with DMSO to give a compound working solution at a concentration of 200× (6000, 2000, 600, 200, 60, 20, and 0 µM). The positive inhibitor stock solution was diluted with DMSO to give a positive inhibitor working solution at a concentration of 200× (sulfaphenazole, 1000, 300, 100, 30, 10, 3, and 0 µM; quinidine/ketoconazole, 100, 30, 10, 3, 1, 0.3, and 0 µM). Substrate working solutions (120 µM diclofenac, 400 µM dextromethorphan, and 200 µM midazolam) at a concentration of 200× were prepared with water, acetonitrile, or acetonitrile/methanol. • 3. […]
# The values were calculated by Excel XLfit 5.3.1.3 to obtain IC50 values for the compounds of the present invention against CYP2C9, CYP2D6, and CYP3A4 as shown in Table 8. […]
# T1 sequence (P10635 whole entry): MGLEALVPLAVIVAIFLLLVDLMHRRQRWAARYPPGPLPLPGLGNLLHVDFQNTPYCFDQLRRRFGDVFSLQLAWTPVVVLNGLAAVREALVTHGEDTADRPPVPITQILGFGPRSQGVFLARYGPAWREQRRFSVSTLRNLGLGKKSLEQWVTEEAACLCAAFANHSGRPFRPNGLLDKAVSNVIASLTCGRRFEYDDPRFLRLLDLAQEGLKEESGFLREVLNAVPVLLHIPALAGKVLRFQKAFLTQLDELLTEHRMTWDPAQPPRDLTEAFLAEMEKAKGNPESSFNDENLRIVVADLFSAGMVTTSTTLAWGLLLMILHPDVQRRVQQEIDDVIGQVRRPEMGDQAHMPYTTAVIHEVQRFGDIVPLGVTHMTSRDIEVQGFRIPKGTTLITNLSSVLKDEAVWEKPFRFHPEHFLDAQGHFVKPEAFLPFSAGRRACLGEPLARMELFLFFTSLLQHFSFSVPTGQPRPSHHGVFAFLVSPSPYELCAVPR
Compound,pIC50 [1],pIC50 (CYP2D6)
"Cc1nc(N[C@H](C)c2cccc(C(F)F)c2F)c2cn(C3(CF)CC3)c(=O)c(N3CCOC[C@@H]3C)c2n1 [Example 40, 4-(((R)-1-(3-(difluoromethyl)-2-fluorophenyl)ethyl)amino)-6-(1-(fluoromethyl)cyclopropyl)-2-methyl-8-((S)-3-methylmorpholine)pyrido[4,3-d]pyrimidine-7(6H)-one]",7.70,< 4.52
"[2H][C@](C)(Nc1nc(C)nc2c(N3CCOCC3)c(=O)n(C3(CF)CC3)cc12)c1cccc(C(F)F)c1F [Example 55, (R)-4-((1-(3-(difluoromethyl)-2-fluorophenyl)ethyl-1-d)amino)-6-(1-(fluoromethyl)cyclopropyl)-2-methyl-8-morpholinylpyrido[4,3-d]pyrimidine-7(6H)-one]",7.52,< 4.52

# Now from value to compound, other results behind:
pIC50 [1],Compound,pIC50 (CYP2D6)
7.38,"COc1c(=O)n(N2CCOCC2)cc2c(N[C@H](C)c3cccc(C(F)F)c3F)nc(C)nc12 [Example 20, (R)-4-((1-(3-(difluoromethyl)-2-fluorophenyl)ethyl)amino)-8-methoxy-2-methyl-6-morpholinepyrido[4,3-d]pyrimidine-7(6H)-one]",
7.35,"[2H]C([2H])([2H])Oc1c(=O)n(C2(CF)CC2)cc2c(N[C@H](C)c3cccc(C(F)F)c3F)nc(C)nc12 [Example 23, (R)-4-((1-(3-(difluoromethyl)-2-fluorophenyl)ethyl)amino)-6-(1-(fluoromethyl)cyclopropyl)-8-(methoxy-d3)-2-methylpyrido[4,3-d]pyrimidine-7(6H)-one]",< 4.52
8.04,"Cc1nc(N[C@H](C)c2cccc(C(F)F)c2F)c2cn(C3(CF)CC3)c(=O)c(N3CCOCC3)c2n1 [Example 34, (R)-4-((1-(3-(difluoromethyl)-2-fluorophenyl)ethyl)amino)-6-(1-(fluoromethyl)cyclopropyl)-2-methyl-8-morpholinylpyrido[4,3-d]pyrimidine-7(6H)-one]",
